Drawing on patent publication US11634425B2, “Pharmaceutical compounds” (priority 2019, dated 2023), this text covers half-life, CC50 and EC50 for 17 compounds.

One data set can be described thus: in vitro. The note with it: microsomes, pH 7.4, 1 μM compound, 0.5 mg/mL protein, read-out: Liver Microsomal Stability t1/2. It is filed as in vitro ADME. The protocol:
Compounds were subjected to the following assays to investigate liver microsomal stability and hepatocyte stability.
Microsomal Incubation: Experimental Procedure
Pooled liver microsomes were purchased from a reputable commercial supplier and stored at −80° C. prior to use. Microsomes (final protein concentration 0.5 mg/mL), 0.1 M phosphate buffer pH 7.4 and test compound (final substrate concentration 1 μM; final DMSO concentration 0.25%) were pre-incubated at 37° C. prior to the addition of NADPH (final concentration 1 mM) to initiate the reaction. The final incubation volume was 50 μL. A control incubation was included for each compound tested where 0.1 M phosphate buffer pH 7.4 was added instead of NADPH (minus NADPH). Two control compounds were included with each species. All incubations were performed singularly for each test compound. Each compound was incubated for 0, 5, 15, 30 and 45 min. The control (minus NADPH) was incubated for 45 min only. The reactions were stopped by transferring incubate into acetonitrile at the appropriate time points, in a 1:3 ratio. The termination plates are centrifuged at 3,000 rpm for 20 min at 4° C. to precipitate the protein. Following protein precipitation, the sample supernatants were combined in cassettes of up to 4 compounds, internal standard added, and samples analysed by LC-MS/MS. From a plot of ln peak area ratio (compound peak area/internal standard peak area) against time, the gradient of the line was determined. Subsequently, half-life (t1/2) and intrinsic clearance (CLint) were calculated.
In general terms: Liver microsomes are vesicles of endoplasmic reticulum, rich in cytochrome P450 enzymes.

A short description of a further data set: Cell cytotoxicity (CC50). It is filed as cell-based. The note with it: human; mean of at least two experiments. The procedure, abridged:
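Values are means of ≥2 independent runs, rounded to whole units, from 4-parameter variable-slope curve fits. Toxicity measured in Hep-G2 cells run alongside RSV plaque-reduction assays.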

The subject of another data set is RSV A2. Description: RSV plaque reduction assay. It is filed as cell-based, respiratory syncytial virus (RSV). The note with it: human respiratory syncytial virus, HepG2, Hep-G2 cells, mean of at least two experiments. The procedure, abridged: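 EC50 is the 50% reduction in immunostained plaque count versus virus-control wells, interpolated from variable-slope 4-parameter fits and averaged over at least two runs. Hep-G2 cells were infected with 100 PFU/well RSV A2 premixed with compound, with the inoculum removed after 2 h. Incubation continued at 37 °C for 2 days under a CMC overlay with compound.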

Where two headings read alike, the source gives them in different places.

What is called CC50 is the concentration at which the toxic effect on the cells reaches its halfway point. A high value points to better tolerance by the cells. A word on the EC50: it is the midpoint of the concentration-response curve. The low end stands for an effect from little substance, the high end for a need for much substance.

On to `CNc1ccc(-c2nn3cccnc3c2C(=O)N[C@H]2N=C(c3ccccc3)c3ccccc3NC2=O)cc1` [Example 1, 2-[4-(Methylamino)phenyl]-N-[(3S)-2-oxo-5-phenyl-1,3-dihydro-1,4-benzodiazepin-3-yl]pyrazolo[1,5-a]pyrimidine-3-carboxamide], for which the half-life at 1 μM amounted to 1.25 h in “in vitro” (dog), 1.22 h in “in vitro” (human) and 0.678 h in the data set “in vitro” (rat). In addition, the 50% cytotoxic concentration (CC50) in the data set “Cell cytotoxicity (CC50)” was more than 25000 nM. In the data set on RSV A2, this compound showed an EC50 of 35 nM.
On the same counts, the results for `O=C(N[C@H]1N=C(c2ccccc2)c2ccccc2NC1=O)c1c(-c2ccc(F)cc2F)nn2cccnc12` [Example 4, 2-(2,4-difluorophenyl)-N-[(3S)-2-oxo-5-phenyl-1,3-dihydro-1,4-benzodiazepin-3-yl]pyrazolo[1,5-a]pyrimidine-3-carboxamide] are 3.93 h, more than 2.33 h, more than 2.33 h, more than 25000 nM and 62 nM.
For the compound `O=C(N[C@H]1N=C(c2ccccc2)c2cccc(F)c2NC1=O)c1c(-c2ccc(F)cc2F)nn2cccnc12` [Example 5, 2-(2,4-Difluorophenyl)-N-[(3S)-9-fluoro-2-oxo-5-phenyl-1,3-dihydro-1,4-benzodiazepin-3-yl]pyrazolo[1,5-a]pyrimidine-3-carboxamide], the half-life at 1 μM in the data set “in vitro” (dog) was 5.93 h; in “in vitro” (human), more than 2.33 h; in “in vitro” (rat) it was more than 2.33 h. In the data set “Cell cytotoxicity (CC50)”, this compound displayed a CC50 of more than 25000 nM. The EC50 in the data set on RSV A2 stood at 39 nM.
Take `O=C(N[C@H]1N=C(c2ccccc2)c2cccc(F)c2NC1=O)c1c(-c2cc(F)ccc2F)nn2cccnc12` [Example 7, 2-(2,5-Difluorophenyl)-N-[(3S)-9-fluoro-2-oxo-5-phenyl-1,3-dihydro-1,4-benzodiazepin-3-yl]pyrazolo[1,5-a]pyrimidine-3-carboxamide]: the half-life at 1 μM in “in vitro” (dog) worked out at 2.5 h; in the data set “in vitro” (human) it was 10.7 h; in “in vitro” (rat), 2.08 h. Also, in the data set “Cell cytotoxicity (CC50)”, the 50% cytotoxic concentration (CC50) was more than 25000 nM. In the data set with RSV A2, this compound yielded a concentration giving a half-maximal response (EC50) of 107 nM.
As for `O=C(N[C@H]1N=C(c2ccccc2)c2cccc(F)c2NC1=O)c1c(-c2ccccc2Cl)nn2cccnc12` [Example 10, 2-(2-Chlorophenyl)-N-[(3S)-9-fluoro-2-oxo-5-phenyl-1,3-dihydro-1,4-benzodiazepin-3-yl]pyrazolo[1,5-a]pyrimidine-3-carboxamide], the half-life at 1 μM in the data set “in vitro” (dog) was 6.33 h; in “in vitro” (human), more than 2.33 h; in “in vitro” (rat), 1.83 h. The CC50 in “Cell cytotoxicity (CC50)” stood at 21100 nM. Moreover, the EC50 in the data set with RSV A2 was 77 nM.
Take `O=C(N[C@H]1N=C(c2ccccc2)c2ccccc2NC1=O)c1c(-c2ccccc2)nn2cccnc12` [Example 12, N-[(3S)-2-oxo-5-phenyl-1,3-dihydro-1,4-benzodiazepin-3-yl]-2-phenylpyrazolo[1,5-a]pyrimidine-3-carboxamide]: the figures for the half-life at 1 μM in the data set “in vitro” (dog), in the data set “in vitro” (human) and in the data set “in vitro” (rat) were 3.87 h, 4.4 h and more than 2.33 h, respectively. For the same compound, the cytotoxic concentration (CC50) in “Cell cytotoxicity (CC50)” is more than 25000 nM. The response in the data set on RSV A2 was half-maximal at 153 nM (EC50).
Taken in the same sequence, the figures for `COc1ccc(-c2nn3cccnc3c2C(=O)N[C@H]2N=C(c3ccccc3)c3ccccc3NC2=O)c(F)c1` [Example 14, 2-(2-Fluoro-4-methoxyphenyl)-N-[(3S)-2-oxo-5-phenyl-1,3-dihydro-1,4-benzodiazepin-3-yl]pyrazolo[1,5-a]pyrimidine-3-carboxamide] were 1.33 h, more than 2.33 h, 2.72 h, more than 25000 nM and 41 nM.
`CNc1ccc(-c2nn3cccnc3c2C(=O)N[C@H]2N=C(c3ccccc3)c3ccccc3NC2=O)c(F)c1` [Example 16, 2-[2-Fluoro-4-(methylamino)phenyl]-N-[(3S)-2-oxo-5-phenyl-1,3-dihydro-1,4-benzodiazepin-3-yl]pyrazolo[1,5-a]pyrimidine-3-carboxamide]: the half-life at 1 μM in the data set “in vitro” (dog) came out at 0.657 h; in the data set “in vitro” (human) it was 1.5 h; in the data set “in vitro” (rat) it was 0.652 h. In the data set “Cell cytotoxicity (CC50)”, the half-maximal cytotoxic concentration (CC50) was more than 25000 nM. In the data set on RSV A2, the half-maximal effective concentration (EC50) came to 18 nM.
With `Cc1nn2cc(-c3ccoc3)cnc2c1C(=O)N[C@H]1N=C(c2ccccc2)c2cccc(F)c2NC1=O` [Example 24, N-[(3S)-9-Fluoro-2-oxo-5-phenyl-1,3-dihydro-1,4-benzodiazepin-3-yl]-6-(furan-3-yl)-2-methylpyrazolo[1,5-a]pyrimidine-3-carboxamide], the half-life at 1 μM is 1.98 h in the data set “in vitro” (dog), more than 2.33 h in the data set “in vitro” (human) and 0.427 h in the data set “in vitro” (rat). The compound further yielded a CC50 in “Cell cytotoxicity (CC50)” of more than 25000 nM. This compound also returned an EC50 in the data set with RSV A2 of 104 nM.
Take `O=C(N[C@H]1N=C(c2ccccc2)c2ccccc2NC1=O)c1c(-c2cncc(Cl)c2)nn2cccnc12` [Example 27, 2-(5-Chloropyridin-3-yl)-N-[(3S)-2-oxo-5-phenyl-1,3-dihydro-1,4-benzodiazepin-3-yl]pyrazolo[1,5-a]pyrimidine-3-carboxamide]: the figures for the half-life at 1 μM in “in vitro” (dog), in the data set “in vitro” (human) and in the data set “in vitro” (rat) were 0.997 h, 2.03 h and 8.75 h, respectively. Also, in the data set “Cell cytotoxicity (CC50)”, the cytotoxic concentration (CC50) was more than 25000 nM. For the same compound, in the data set on RSV A2, the EC50 is 61 nM.
On the same counts, the results for `O=C(N[C@H]1N=C(c2ccccc2)c2ccccc2NC1=O)c1c(-c2ccc(C3CC3)nc2)nn2cccnc12` [Example 29, 2-(6-Cyclopropylpyridin-3-yl)-N-[(3S)-2-oxo-5-phenyl-1,3-dihydro-1,4-benzodiazepin-3-yl]pyrazolo[1,5-a]pyrimidine-3-carboxamide] are 1.23 h, 5.22 h, 15.2 h, more than 25000 nM and 72 nM.
Take `O=C(N[C@H]1N=C(c2ccccc2)c2cccc(F)c2NC1=O)c1c(-c2ccc(C3CC3)nc2)nn2cccnc12` [Example 30, 2-(6-Cyclopropylpyridin-3-yl)-N-[(3S)-9-fluoro-2-oxo-5-phenyl-1,3-dihydro-1,4-benzodiazepin-3-yl]pyrazolo[1,5-a]pyrimidine-3-carboxamide]: the half-life at 1 μM was 4.88 h in the data set “in vitro” (dog), 3.02 h in the data set “in vitro” (human) and 4.43 h in the data set “in vitro” (rat). The compound also came in with a CC50 in “Cell cytotoxicity (CC50)” of more than 25000 nM. In addition, in the data set on RSV A2, the concentration giving a half-maximal response (EC50) is 62 nM.
In the case of `Cc1cnc(F)c(-c2nn3cccnc3c2C(=O)N[C@H]2N=C(c3ccccc3)c3cccc(F)c3NC2=O)c1` [Example 32, 2-(2-Fluoro-5-methylpyridin-3-yl)-N-[(3S)-9-fluoro-2-oxo-5-phenyl-1,3-dihydro-1,4-benzodiazepin-3-yl]pyrazolo[1,5-a]pyrimidine-3-carboxamide], the half-life at 1 μM in the data set “in vitro” (dog) was determined as 3.78 h; in the data set “in vitro” (human), 5.58 h; in the data set “in vitro” (rat), 1.28 h. The same compound returned a CC50 in “Cell cytotoxicity (CC50)” of more than 25000 nM. The compound further came in with an EC50 with RSV A2 of 86 nM.
For the compound `Cc1cnc2c(C(=O)N[C@H]3N=C(c4ccccc4)c4cccc(F)c4NC3=O)c(-c3ccccc3F)nn2c1` [Example 34, N-[(3S)-9-Fluoro-2-oxo-5-phenyl-1,3-dihydro-1,4-benzodiazepin-3-yl]-2-(2-fluorophenyl)-6-methylpyrazolo[1,5-a]pyrimidine-3-carboxamide], the half-life at 1 μM is 1.44 h in the data set “in vitro” (dog), more than 2.33 h in the data set “in vitro” (human) and 1.08 h in the data set “in vitro” (rat). The half-maximal cytotoxic concentration (CC50) in “Cell cytotoxicity (CC50)” was more than 25000 nM. Besides, a half-maximal effect in the data set on RSV A2 (EC50) was put at 23 nM.
Consider `CCc1ccc(-c2nc3ccc(OC)nn3c2C(=O)N[C@H]2N=C(c3ccccc3)c3cccc(F)c3NC2=O)cn1` [Example 121, 2-(6-Ethylpyridin-3-yl)-6-methoxy-N-[(3S)-9-fluoro-2-oxo-5-phenyl-1,3-dihydro-1,4-benzodiazepin-3-yl]imidazo[1,2-b]pyridazine-3-carboxamide], for which, in “Cell cytotoxicity (CC50)”, the 50% cytotoxic concentration (CC50) is more than 25000 nM. Besides, the EC50 in the data set with RSV A2 came to 42 nM.
On the same counts, the results for `CCOc1ccc2nc(-c3ccc(CC)nc3)c(C(=O)N[C@H]3N=C(c4ccccc4)c4cccc(F)c4NC3=O)n2n1` [Example 122, 6-Ethoxy-2-(6-ethylpyridin-3-yl)-N-[(3S)-9-fluoro-2-oxo-5-phenyl-1,3-dihydro-1,4-benzodiazepin-3-yl]imidazo[1,2-b]pyridazine-3-carboxamide] are more than 25000 nM and 100 nM.
On the same counts, the results for `[2H]C([2H])([2H])Oc1ccc2nc(-c3ccc(CC)nc3)c(C(=O)N[C@H]3N=C(c4ccccc4)c4cccc(F)c4NC3=O)n2n1` [Example 123, 2-(6-Ethylpyridin-3-yl)-N-[(3S)-9-fluoro-2-oxo-5-phenyl-2,3-dihydro-1H-1,4-benzodiazepin-3-yl]-6-(^2H3)methoxyimidazo[1,2-b]pyridazine-3-carboxamide] are more than 25000 nM and 45 nM.
